The results in this text go back to ChEMBL document CHEMBL1132690, “Design, synthesis, and biological evaluation of potent thiazine- and thiazepine-based matrix metalloproteinase inhibitors” (J Med Chem, 1999).

Structures are written as SMILES.

The IC50 is the concentration that gives 50% inhibition. A lower IC50 goes with greater potency. As usually defined, the Ki is a measure of affinity in units of concentration, obtained from inhibition or displacement. A high value points to lower affinity.

Experiment [1] addresses T1, Interstitial collagenase (Homo sapiens, UniProt P03956).
T1 sequence (P03956 whole entry): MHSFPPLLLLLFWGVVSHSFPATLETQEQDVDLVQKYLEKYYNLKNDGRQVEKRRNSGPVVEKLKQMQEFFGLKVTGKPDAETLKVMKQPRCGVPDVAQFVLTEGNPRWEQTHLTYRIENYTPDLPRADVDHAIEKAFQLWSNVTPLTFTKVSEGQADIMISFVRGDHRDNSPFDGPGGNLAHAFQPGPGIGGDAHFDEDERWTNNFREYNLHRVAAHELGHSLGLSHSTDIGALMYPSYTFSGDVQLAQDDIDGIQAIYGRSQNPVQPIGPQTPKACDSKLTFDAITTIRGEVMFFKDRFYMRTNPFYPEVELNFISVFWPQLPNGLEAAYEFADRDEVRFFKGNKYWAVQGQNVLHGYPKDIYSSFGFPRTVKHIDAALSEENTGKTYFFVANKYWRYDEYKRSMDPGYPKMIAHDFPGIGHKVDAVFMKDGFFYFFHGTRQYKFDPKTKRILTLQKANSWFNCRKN
Description: In vitro inhibitory activity against truncated collagenase-1 (matrix metalloprotease-1).

In experiment [2] the target is T2, Matrilysin (Homo sapiens, UniProt P09237).
T2 sequence (P09237 whole entry): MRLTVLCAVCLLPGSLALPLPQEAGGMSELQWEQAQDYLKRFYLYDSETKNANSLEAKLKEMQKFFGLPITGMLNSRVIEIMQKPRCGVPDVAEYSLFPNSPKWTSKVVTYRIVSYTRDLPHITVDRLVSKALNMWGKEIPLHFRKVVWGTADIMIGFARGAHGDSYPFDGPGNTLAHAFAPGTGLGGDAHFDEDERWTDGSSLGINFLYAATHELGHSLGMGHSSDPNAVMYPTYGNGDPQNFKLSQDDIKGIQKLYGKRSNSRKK
Description: In vitro inhibitory activity against matrilysin (matrix metalloprotease-7).

In experiment [3] the target is Collagenase 3 (Homo sapiens, UniProt P45452).
Description: In vitro inhibitory activity against collagenase-3 (matrix metalloprotease-13).
Experiment [4] concerns the target 72 kDa type IV collagenase (Homo sapiens, UniProt P08253).
Description: In vitro inhibitory activity against gelatinase-A (matrix metalloprotease-2).
In experiment [5] the target is Neutrophil collagenase (Homo sapiens, UniProt P22894).
Sequence of Neutrophil collagenase (P22894 whole entry): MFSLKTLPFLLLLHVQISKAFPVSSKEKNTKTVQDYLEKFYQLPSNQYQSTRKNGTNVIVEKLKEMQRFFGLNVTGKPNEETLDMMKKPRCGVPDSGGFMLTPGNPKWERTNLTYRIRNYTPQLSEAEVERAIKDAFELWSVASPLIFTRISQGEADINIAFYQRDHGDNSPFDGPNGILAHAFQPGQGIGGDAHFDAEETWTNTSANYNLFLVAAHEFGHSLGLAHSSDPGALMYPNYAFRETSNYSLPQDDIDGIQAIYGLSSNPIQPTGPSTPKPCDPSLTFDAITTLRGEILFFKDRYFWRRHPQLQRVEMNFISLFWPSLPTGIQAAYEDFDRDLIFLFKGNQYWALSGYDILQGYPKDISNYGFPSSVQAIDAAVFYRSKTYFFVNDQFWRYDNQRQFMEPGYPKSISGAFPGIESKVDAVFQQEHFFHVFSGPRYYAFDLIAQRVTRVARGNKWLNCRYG
Description: Inhibition of neutrophil collagenase (Matrix metalloprotease-8)
Experiment [6] addresses Matrix metalloproteinase-9 (Homo sapiens, UniProt P14780).
Description: Inhibition of gelatinase-B (Matrix metalloprotease-9)
For experiment [7], the target named is T2, Matrilysin. The source holds these as a separate data set.
Description: Inhibition of matrilysin (Matrix metalloprotease-7)

Sequence of 72 kDa type IV collagenase (P08253 whole entry): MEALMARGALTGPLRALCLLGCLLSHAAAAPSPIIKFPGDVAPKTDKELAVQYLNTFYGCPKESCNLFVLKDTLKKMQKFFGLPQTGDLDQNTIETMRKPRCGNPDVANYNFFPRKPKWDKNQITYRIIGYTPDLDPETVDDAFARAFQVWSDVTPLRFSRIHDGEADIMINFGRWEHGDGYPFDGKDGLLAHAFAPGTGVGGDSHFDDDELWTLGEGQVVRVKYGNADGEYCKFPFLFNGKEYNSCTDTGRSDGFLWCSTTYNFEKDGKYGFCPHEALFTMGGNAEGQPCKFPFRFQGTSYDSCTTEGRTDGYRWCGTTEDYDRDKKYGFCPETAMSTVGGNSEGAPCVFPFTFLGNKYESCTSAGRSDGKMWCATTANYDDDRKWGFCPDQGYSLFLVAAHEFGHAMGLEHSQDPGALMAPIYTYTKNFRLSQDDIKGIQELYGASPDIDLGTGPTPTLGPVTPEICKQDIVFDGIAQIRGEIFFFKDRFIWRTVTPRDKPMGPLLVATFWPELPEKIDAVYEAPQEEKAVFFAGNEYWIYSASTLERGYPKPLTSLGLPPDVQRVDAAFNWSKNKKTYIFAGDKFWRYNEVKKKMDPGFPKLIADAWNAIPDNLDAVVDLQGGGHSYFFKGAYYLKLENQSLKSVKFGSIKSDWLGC
Sequence of Matrix metalloproteinase-9 (P14780 whole entry): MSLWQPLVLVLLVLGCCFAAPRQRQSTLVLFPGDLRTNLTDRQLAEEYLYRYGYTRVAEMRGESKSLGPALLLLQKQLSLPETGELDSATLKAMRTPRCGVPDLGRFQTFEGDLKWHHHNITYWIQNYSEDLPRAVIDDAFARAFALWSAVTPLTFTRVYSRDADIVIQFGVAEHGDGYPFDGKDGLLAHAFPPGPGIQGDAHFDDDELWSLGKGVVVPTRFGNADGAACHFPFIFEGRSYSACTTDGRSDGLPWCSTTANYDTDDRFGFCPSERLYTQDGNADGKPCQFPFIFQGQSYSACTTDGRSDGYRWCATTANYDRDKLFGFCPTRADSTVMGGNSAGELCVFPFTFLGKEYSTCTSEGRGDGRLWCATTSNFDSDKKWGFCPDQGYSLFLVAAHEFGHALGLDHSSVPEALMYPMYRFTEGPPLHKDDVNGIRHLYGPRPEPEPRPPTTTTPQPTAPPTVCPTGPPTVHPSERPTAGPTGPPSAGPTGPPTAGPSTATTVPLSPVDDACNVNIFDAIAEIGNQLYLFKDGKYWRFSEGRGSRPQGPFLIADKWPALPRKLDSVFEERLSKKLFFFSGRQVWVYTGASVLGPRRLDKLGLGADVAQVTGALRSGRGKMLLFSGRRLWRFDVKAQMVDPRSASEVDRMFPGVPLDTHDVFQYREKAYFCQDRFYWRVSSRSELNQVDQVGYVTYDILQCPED

On to `COc1ccc(S(=O)(=O)N2CCNCC2C(=O)NO)cc1` (stereo unspecified), for which the results for the IC50 in experiment [1], in experiment [2] and in experiment [3] were 175 nM, 2390 nM and 1.7 nM, respectively.

`COc1ccc(S(=O)(=O)N2CCCC2C(=O)NO)cc1` (stereo unspecified) had a concentration for half-maximal inhibition (IC50) in experiment [1] of 297 nM.

Turning to `CCCCOc1ccc(S(=O)(=O)N2CCCSC(C)(C)[C@@H]2C(=O)NO)cc1`, the values for the IC50 in experiment [4], in experiment [1] and in experiment [3] were 1 nM, 18 nM and 2.3 nM, respectively.

For the molecule `Cc1cc(Br)ccc1S(=O)(=O)N1CCCSC(C)(C)[C@@H]1C(=O)NO`, the half-inhibitory concentration (IC50) in experiment [4] came to 24 nM; in experiment [1], 0.5 nM; in experiment [2], 354 nM; in experiment [3], 9.2 nM.

Regarding `CC1(C)SCCCN(S(=O)(=O)c2ccc(Oc3ccncc3)cc2)[C@H]1C(=O)NO`, the half-maximal inhibitory concentration (IC50) is less than 0.4 nM in experiment [4], 5.7 nM in experiment [1], 105 nM in experiment [2] and less than 0.4 nM in experiment [3].

Consider `COc1ccc(S(=O)(=O)N2CCCCC(C)(C)[C@@H]2C(=O)NO)cc1`, for which the IC50 in experiment [4] amounted to 1.4 nM; in experiment [5], 1.9 nM; in experiment [1], 2.4 nM; in experiment [6], 0.5 nM; in experiment [2], 18 nM.

As for `CC1(C)SCCCN(S(=O)(=O)c2ccc(Br)cc2)[C@H]1C(=O)NO`, the IC50 in experiment [4] was 6.8 nM; in experiment [1], 0.7 nM; in experiment [2] it was 17 nM; in experiment [3], 1.3 nM.

For the molecule `COc1ccc(S(=O)(=O)N2CCCSCC2C(=O)NO)cc1` (stereo unspecified), the half-inhibitory concentration (IC50) turned out to be 64 nM in experiment [1], 1100 nM in experiment [2] and 1.9 nM in experiment [3].

For the molecule `CC1(C)SCCCN(S(=O)(=O)c2ccc(Oc3ccccc3)cc2)[C@H]1C(=O)NO`, the IC50 is 2.3 nM in experiment [1], 16 nM in experiment [2] and less than 0.4 nM in experiment [3].

In the case of `COc1ccc(S(=O)(=O)N2CCCCC2C(=O)NO)cc1` (stereo unspecified), the figures for the IC50 in experiment [2] and in experiment [3] were 313 nM and 0.5 nM, respectively.

For the molecule `CCCc1ccc(S(=O)(=O)N2CCCSC(C)(C)[C@@H]2C(=O)NO)cc1`, the IC50 in experiment [4] is 35 nM; in experiment [1], 22 nM; in experiment [2] it was 637 nM; in experiment [3], 7.5 nM.

Take `COc1ccc(S(=O)(=O)N2CCCCCC2C(=O)NO)cc1` (stereo unspecified): the 50% inhibitory concentration (IC50) came to 49 nM in experiment [1], 895 nM in experiment [2] and 1.8 nM in experiment [3].

Regarding `COc1ccc(S(=O)(=O)N2CCCSC(C)(C)[C@@H]2C(=O)NO)cc1`, the IC50 in experiment [4] worked out at 2.7 nM; in experiment [5] it was 1.4 nM; in experiment [1] it was 0.8 nM; in experiment [6], 1.9 nM; in experiment [2] it was 30 nM; in experiment [3], 0.9 nM.

On to `COc1ccc(S(=O)(=O)N2CCSC(C)(C)[C@@H]2C(=O)NO)cc1`, for which the IC50 in experiment [4] was 1.4 nM; in experiment [1], 0.4 nM; in experiment [6], 0.9 nM; in experiment [2] it was 23 nM; in experiment [3], 1 nM.

For `COc1ccc(S(=O)(=O)N2CCCSC[C@@]2(C)C(=O)NO)cc1`, the concentration for half-maximal inhibition (IC50) in experiment [4] was determined as 4.2 nM; in experiment [1], 217 nM; in experiment [2] it was 17700 nM; in experiment [3], 4 nM.

Consider `COc1ccc(S(=O)(=O)N2[C@@H](C(=O)NO)C(C)(C)SCC[C@H]2c2ccccc2)cc1`, for which the concentration for half-maximal inhibition (IC50) in experiment [1] worked out at 236 nM; in experiment [2], 54 nM.

As for `COc1ccc(S(=O)(=O)N2[C@@H](c3ccccc3)CCSC(C)(C)[C@@H]2C(=O)NO)cc1`, the IC50 in experiment [1] was determined as 271 nM; in experiment [2], 110 nM.

On to `CC1(C)[C@H](C(=O)NO)N(S(=O)(=O)c2ccc(Br)cc2)CCCS1(=O)=O`, for which the IC50 in experiment [4] turned out to be 20 nM; in experiment [1], 1.2 nM; in experiment [2] it was 79 nM; in experiment [3] it was 2.7 nM.

`COCOC1CSC(C)(C)[C@H](C(=O)NO)N(S(=O)(=O)c2ccc(OC)cc2)C1` (stereo partly specified): the IC50 came out at 1.8 nM in experiment [4], 38 nM in experiment [2] and 1.4 nM in experiment [3].

On to `COc1ccc(S(=O)(=O)N2C[C@@H](O)CS(=O)(=O)C(C)(C)[C@@H]2C(=O)NO)cc1`, for which the 50% inhibitory concentration (IC50) in experiment [4] was determined as 5.2 nM; in experiment [1], 1.9 nM; in experiment [3] it was 1.3 nM.

`COc1ccc(S(=O)(=O)N2CCOCCSC(C)(C)[C@@H]2C(=O)NO)cc1`: the IC50 in experiment [4] was 3.5 nM; in experiment [1], less than 1 nM; in experiment [2], less than 100 nM; in experiment [3] it was 0.2 nM.

Regarding `COc1ccc(S(=O)(=O)N2CCCS(=O)(=O)C(C)(C)[C@@H]2C(=O)NO)cc1`, the concentration for half-maximal inhibition (IC50) worked out at 7.8 nM in experiment [4]; 2.4 nM in experiment [5]; 3.6 nM in experiment [6]; 41 nM in experiment [2]; 2.1 nM in experiment [3].

As for `COc1ccc(S(=O)(=O)N2CCS(=O)(=O)C(C)(C)[C@@H]2C(=O)NO)cc1`, the IC50 in experiment [4] was 14 nM; in experiment [1], 13 nM; in experiment [3] it was 4.3 nM.

As for `CCCCCc1ccc(S(=O)(=O)N2CCCSC(C)(C)[C@@H]2C(=O)NO)cc1`, the half-inhibitory concentration (IC50) was 61 nM in experiment [1], 330 nM in experiment [2] and 2.1 nM in experiment [3].

With `COc1ccc(S(=O)(=O)N2CSCC2C(=O)NO)cc1` (stereo unspecified), the IC50 in experiment [1] amounted to 638 nM.

Consider `COc1ccc(S(=O)(=O)N2CCS(=O)(=O)CC2C(=O)NO)cc1` (stereo unspecified), for which the figures for the IC50 in experiment [1], in experiment [2] and in experiment [3] were 688 nM, 12800 nM and 18.4 nM, respectively.

Consider `CC1(C)SCCCN(S(=O)(=O)c2ccc(-c3ccccn3)s2)[C@H]1C(=O)NO`, for which the IC50 was 1 nM in experiment [4], 1 nM in experiment [1], 170 nM in experiment [2] and less than 0.2 nM in experiment [3].

As to `CC1(C)SCCCN(S(=O)(=O)c2ccc(-c3ccc(F)cc3)cc2)[C@H]1C(=O)NO`, the concentration for half-maximal inhibition (IC50) in experiment [4] is 1.3 nM; in experiment [1], 2.9 nM; in experiment [2] it was less than 100 nM; in experiment [3] it was less than 1 nM.

For `COCCOc1ccc(S(=O)(=O)N2CCCSC(C)(C)[C@@H]2C(=O)NO)cc1`, the half-maximal inhibitory concentration (IC50) in experiment [4] was 11.4 nM; in experiment [1], 42 nM; in experiment [2] it was 509 nM; in experiment [3], 5.6 nM.

`COc1ccc(S(=O)(=O)N2CCSCC2C(=O)NO)cc1` (stereo unspecified): the results for the half-inhibitory concentration (IC50) in experiment [1], in experiment [2] and in experiment [3] were 62 nM, 2070 nM and 1 nM, respectively.

On to `COc1ccc(S(=O)(=O)N2CCOCC2C(=O)NO)cc1` (stereo unspecified), for which the IC50 in experiment [1] is 49.5 nM; in experiment [3], 1 nM.

Turning to `COc1ccc(S(=O)(=O)N2CCOCCS(=O)(=O)C(C)(C)[C@@H]2C(=O)NO)cc1`, the IC50 in experiment [1] came to 1.9 nM; in experiment [2], 183 nM; in experiment [3], 3.3 nM.

On to `CCCCOc1ccc(S(=O)(=O)N2CCCS(=O)(=O)C(C)(C)[C@@H]2C(=O)NO)cc1`, for which the 50% inhibitory concentration (IC50) in experiment [4] was determined as 1.2 nM; in experiment [1] it was 19 nM; in experiment [2], 27 nM; in experiment [3], 0.4 nM.

On to `COc1ccc(S(=O)(=O)N2CCCCCSC(C)(C)[C@@H]2C(=O)NO)cc1`, for which the half-inhibitory concentration (IC50) in experiment [4] turned out to be 2.4 nM; in experiment [5], 0.6 nM; in experiment [1] it was 3 nM; in experiment [6], 3.7 nM; in experiment [2] it was 30 nM; in experiment [3], 1 nM.

`COc1ccc(S(=O)(=O)N2CCCSC(C)(C)C2C(=O)NO)cc1` (single isomer, unassigned): the IC50 in experiment [4] is 2900 nM; in experiment [5], 881 nM; in experiment [1], 7780 nM; in experiment [6] it was 1390 nM; in experiment [2] it was more than 10000 nM; in experiment [3] it was 2330 nM.

Regarding `CC1(C)SCCN(S(=O)(=O)c2ccc(Oc3ccncc3)cc2)[C@H]1C(=O)NO` [PRINOMASTAT], the concentration for half-maximal inhibition (IC50) in experiment [5] is less than 0.4 nM; in experiment [2], 91 nM. In addition, the Ki in experiment [7] was determined as 54 nM.
